Data on one compound can be found in patent US20230304041A1, “DUAL PROMOTER-DRIVEN AND DUAL REPORTER-[…]-COV-2 REPLICONS AND METHODS OF USE” (Rosalind Franklin University of Medicine & Science, priority 2022, published 2023).

This assay deals with SARS2 replicon. As to the kind of experiment: microbe, parasite or virus in culture. The assay is classed as cell-based, SARS-CoV-2. Particulars: Severe acute respiratory syndrome coronavirus 2, HEK-293T, 24 hr, read-out: inhibition of fLuc.

For the compound `CCC(CC)COC(=O)[C@H](C)N[P@](=O)(OC[C@H]1O[C@@](C#N)(c2ccc3c(N)ncnn23)[C@H](O)[C@@H]1O)Oc1ccccc1` [Remdesivir], the inhibition (commonly the change of the read-out against control, counted positive when it falls) at 10 µM came out at 70%.
